Experimental data taken from the supplement of paper PMC10307832.

Legend:
Experiment in all cases: relative viability (nuclei count vs DMSO), 5 days (fraction); higher = more cells survive
[1] = compound: CC1CC(=O)N(C2=CN=C(N=C2N1C3CCCC3)NC4=C(C=C(C=C4)C(=O)NC5CCN(CC5)C)OC)C [NPK76-II-72-1] + CC(C)C[C@H](NC(=O)[C@H](Cc1ccccc1)NC(=O)c1cnccn1)B(O)O [Bortezomib] (partner 0.002 µM)
Outline: (§1)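 Cells from lung cancer lines were seeded into 1536-well plates and, one day later, dosed by pin tool. Treatments were either a single drug or a fixed dose of an anchor drug with five library-drug doses (not always all listed) in √10 steps. After 5 days, nuclei were stained in a one-step fixation (final 0.05% Triton X-100, 1% formaldehyde, 1 ug/ml Hoechst) and counted on 4× images, and relative viability is the treated-to-vehicle nuclei ratio, as the median of duplicate plates.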

BI-2536 + Dasatinib = compound: CC[C@@H]1C(=O)N(C)c2cnc(Nc3ccc(C(=O)NC4CCN(C)CC4)cc3OC)nc2N1C1CCCC1 [BI-2536] + Cc1nc(Nc2ncc(C(=O)Nc3c(C)cccc3Cl)s2)cc(N2CCN(CCO)CC2)n1 [Dasatinib] (partner 0.075 µM)
Outline: as §1

[2] = compound: CC1CC(=O)N(C2=CN=C(N=C2N1C3CCCC3)NC4=C(C=C(C=C4)C(=O)NC5CCN(CC5)C)OC)C [NPK76-II-72-1] + Nc1ncn([C@H]2C[C@H](O)[C@@H](CO)O2)c(=O)n1 [Decitabine] (partner 2 µM)
Outline: as §1

BI-2536 + Luminespib = compound: CC[C@@H]1C(=O)N(C)c2cnc(Nc3ccc(C(=O)NC4CCN(C)CC4)cc3OC)nc2N1C1CCCC1 [BI-2536] + CCNC(=O)c1noc(-c2cc(C(C)C)c(O)cc2O)c1-c1ccc(CN2CCOCC2)cc1 [Luminespib] (partner 0.01 µM)
Outline: as §1

| Cell Line | relative viability ([1]; first compound 0.01 µM) | relative viability ([1]; first compound 0.03162 µM) | relative viability ([1]; first compound 0.1 µM) | relative viability ([1]; first compound 0.3162 µM) | relative viability ([1]; first compound 1 µM) | relative viability (BI-2536 + Dasatinib; first compound 0.01 µM) | relative viability (BI-2536 + Dasatinib; first compound 0.03162 µM) | relative viability (BI-2536 + Dasatinib; first compound 0.1 µM) | relative viability (BI-2536 + Dasatinib; first compound 0.3162 µM) | relative viability (BI-2536 + Dasatinib; first compound 1 µM) | relative viability ([2]; first compound 0.01 µM) | relative viability ([2]; first compound 0.03162 µM) | relative viability ([2]; first compound 0.1 µM) | relative viability ([2]; first compound 0.3162 µM) | relative viability ([2]; first compound 1 µM) | relative viability (BI-2536 + Luminespib; first compound 0.01 µM) | relative viability (BI-2536 + Luminespib; first compound 0.03162 µM) | relative viability (BI-2536 + Luminespib; first compound 0.1 µM) | relative viability (BI-2536 + Luminespib; first compound 0.3162 µM) | relative viability (BI-2536 + Luminespib; first compound 1 µM) |
| --- | --- | --- | --- | --- | --- | --- | --- | --- | --- | --- | --- | --- | --- | --- | --- | --- | --- | --- | --- | --- |
| HCC-366 | 0.952 | 1.1 | 1.03 | 0.94 | 0.99 | 0.717 | 0.653 | 0.149 | 0.0225 | 0.0238 | 0.333 | 0.381 | 0.378 | 0.301 | 0.373 | – | – | – | – | – |
| HCC-827 | 0.975 | 1.11 | 1.05 | 0.956 | 1.29 | 0.293 | 0.315 | 0.334 | 0.301 | 0.177 | 0.282 | 0.367 | 0.333 | 0.288 | 0.35 | 0.801 | 0.35 | 0.401 | 0.203 | 0.138 |
| HOP-62 | 0.743 | 0.754 | 0.433 | 0.916 | 0.824 | 0.618 | 0.665 | 0.515 | 0.173 | 0.167 | 0.202 | 0.238 | 0.222 | 0.208 | 0.203 | 0.949 | 0.84 | 0.419 | 0.121 | 0.188 |
| IA-LM | 0.738 | 0.798 | 0.871 | 0.933 | 0.857 | – | – | – | – | – | – | – | – | – | – | – | – | – | – | – |
| LC-2-ad | 0.981 | 1.04 | 0.926 | 1.01 | 1.07 | 0.563 | 0.333 | 0.135 | 0.197 | 0.147 | 0.715 | 0.774 | 0.809 | 0.776 | 0.864 | 0.897 | 0.319 | 0.325 | 0.289 | 0.375 |
| LCLC-97TM1 | 0.638 | 0.727 | 0.561 | 0.606 | 0.703 | 0.943 | 0.837 | 0.725 | 0.155 | 0.12 | 0.226 | 0.233 | 0.195 | 0.259 | 0.211 | 0.785 | 0.641 | 0.504 | 0.14 | 0.175 |
| LCLC-103H | 1.03 | 1.02 | 0.994 | 0.984 | 1.09 | 0.405 | 0.467 | 0.413 | 0.147 | 0.089 | – | 0.786 | 0.694 | 0.761 | 0.716 | 0.95 | 1.05 | 0.842 | 0.188 | 0.184 |
| LK-2 | – | – | – | – | – | 0.268 | 0.313 | 0.215 | 0.147 | 0.137 | 0.379 | 0.246 | 0.265 | 0.201 | 0.407 | 0.184 | 0.176 | 0.155 | 0.177 | 0.176 |
| NCI-H358 | – | – | – | – | – | 0.157 | 0.171 | 0.0774 | 0.0602 | 0.0816 | 0.193 | 0.215 | 0.222 | – | 0.214 | 0.414 | 0.283 | 0.398 | 0.127 | 0.0998 |
| NCI-H522 | – | – | – | – | – | 0.687 | 0.989 | 0.607 | 0.341 | 0.334 | 0.74 | 0.598 | 0.686 | – | 0.633 | 1.21 | 1.08 | 1.04 | 0.375 | 0.318 |
